Measurements: patent US20250114345A1, “COMPOUNDS AND COMPOSITIONS AS CBP/P300 DEGRADERS AND USES THEREOF” (Oncopia Therapeutics, Inc. d/b/a/ SK Life Science Labs, priority 2023, published 2025)

Columns and labels:
p300 = biological target: T1, p300 (Homo sapiens, UniProt Q09472); test: P300 degradation, HiBit technology in A549 P300 HiBit cells (2 h); format: cell-based; conditions: 2 hrs post treatment; for Dmax: A549, A549 P300 HiBit cells; for DC50: A549 P300 HiBit cells
T1 construct: host or cells: A549 P300 HiBit cells
Method in brief: (§1)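 Luminescence after lytic HiBiT detection (10 min, room temperature) gave degradation potency and Dmax. Before that, knock-in A549 cells grown overnight in F-12K/10% HI-FBS were exposed to serially diluted compound at 37 °C, 5% CO2 for the assay time stated.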

CBP = biological target: T2, CBP (Homo sapiens, UniProt Q92793); test: CBP degradation, HiBit technology in A549 CBP HiBit cells (24 h); format: cell-based; conditions: 24 hrs post treatment
T2 construct: host or cells: A549 CBP HiBit cells
Method in brief: as §1

T2 sequence (Q92793 whole entry): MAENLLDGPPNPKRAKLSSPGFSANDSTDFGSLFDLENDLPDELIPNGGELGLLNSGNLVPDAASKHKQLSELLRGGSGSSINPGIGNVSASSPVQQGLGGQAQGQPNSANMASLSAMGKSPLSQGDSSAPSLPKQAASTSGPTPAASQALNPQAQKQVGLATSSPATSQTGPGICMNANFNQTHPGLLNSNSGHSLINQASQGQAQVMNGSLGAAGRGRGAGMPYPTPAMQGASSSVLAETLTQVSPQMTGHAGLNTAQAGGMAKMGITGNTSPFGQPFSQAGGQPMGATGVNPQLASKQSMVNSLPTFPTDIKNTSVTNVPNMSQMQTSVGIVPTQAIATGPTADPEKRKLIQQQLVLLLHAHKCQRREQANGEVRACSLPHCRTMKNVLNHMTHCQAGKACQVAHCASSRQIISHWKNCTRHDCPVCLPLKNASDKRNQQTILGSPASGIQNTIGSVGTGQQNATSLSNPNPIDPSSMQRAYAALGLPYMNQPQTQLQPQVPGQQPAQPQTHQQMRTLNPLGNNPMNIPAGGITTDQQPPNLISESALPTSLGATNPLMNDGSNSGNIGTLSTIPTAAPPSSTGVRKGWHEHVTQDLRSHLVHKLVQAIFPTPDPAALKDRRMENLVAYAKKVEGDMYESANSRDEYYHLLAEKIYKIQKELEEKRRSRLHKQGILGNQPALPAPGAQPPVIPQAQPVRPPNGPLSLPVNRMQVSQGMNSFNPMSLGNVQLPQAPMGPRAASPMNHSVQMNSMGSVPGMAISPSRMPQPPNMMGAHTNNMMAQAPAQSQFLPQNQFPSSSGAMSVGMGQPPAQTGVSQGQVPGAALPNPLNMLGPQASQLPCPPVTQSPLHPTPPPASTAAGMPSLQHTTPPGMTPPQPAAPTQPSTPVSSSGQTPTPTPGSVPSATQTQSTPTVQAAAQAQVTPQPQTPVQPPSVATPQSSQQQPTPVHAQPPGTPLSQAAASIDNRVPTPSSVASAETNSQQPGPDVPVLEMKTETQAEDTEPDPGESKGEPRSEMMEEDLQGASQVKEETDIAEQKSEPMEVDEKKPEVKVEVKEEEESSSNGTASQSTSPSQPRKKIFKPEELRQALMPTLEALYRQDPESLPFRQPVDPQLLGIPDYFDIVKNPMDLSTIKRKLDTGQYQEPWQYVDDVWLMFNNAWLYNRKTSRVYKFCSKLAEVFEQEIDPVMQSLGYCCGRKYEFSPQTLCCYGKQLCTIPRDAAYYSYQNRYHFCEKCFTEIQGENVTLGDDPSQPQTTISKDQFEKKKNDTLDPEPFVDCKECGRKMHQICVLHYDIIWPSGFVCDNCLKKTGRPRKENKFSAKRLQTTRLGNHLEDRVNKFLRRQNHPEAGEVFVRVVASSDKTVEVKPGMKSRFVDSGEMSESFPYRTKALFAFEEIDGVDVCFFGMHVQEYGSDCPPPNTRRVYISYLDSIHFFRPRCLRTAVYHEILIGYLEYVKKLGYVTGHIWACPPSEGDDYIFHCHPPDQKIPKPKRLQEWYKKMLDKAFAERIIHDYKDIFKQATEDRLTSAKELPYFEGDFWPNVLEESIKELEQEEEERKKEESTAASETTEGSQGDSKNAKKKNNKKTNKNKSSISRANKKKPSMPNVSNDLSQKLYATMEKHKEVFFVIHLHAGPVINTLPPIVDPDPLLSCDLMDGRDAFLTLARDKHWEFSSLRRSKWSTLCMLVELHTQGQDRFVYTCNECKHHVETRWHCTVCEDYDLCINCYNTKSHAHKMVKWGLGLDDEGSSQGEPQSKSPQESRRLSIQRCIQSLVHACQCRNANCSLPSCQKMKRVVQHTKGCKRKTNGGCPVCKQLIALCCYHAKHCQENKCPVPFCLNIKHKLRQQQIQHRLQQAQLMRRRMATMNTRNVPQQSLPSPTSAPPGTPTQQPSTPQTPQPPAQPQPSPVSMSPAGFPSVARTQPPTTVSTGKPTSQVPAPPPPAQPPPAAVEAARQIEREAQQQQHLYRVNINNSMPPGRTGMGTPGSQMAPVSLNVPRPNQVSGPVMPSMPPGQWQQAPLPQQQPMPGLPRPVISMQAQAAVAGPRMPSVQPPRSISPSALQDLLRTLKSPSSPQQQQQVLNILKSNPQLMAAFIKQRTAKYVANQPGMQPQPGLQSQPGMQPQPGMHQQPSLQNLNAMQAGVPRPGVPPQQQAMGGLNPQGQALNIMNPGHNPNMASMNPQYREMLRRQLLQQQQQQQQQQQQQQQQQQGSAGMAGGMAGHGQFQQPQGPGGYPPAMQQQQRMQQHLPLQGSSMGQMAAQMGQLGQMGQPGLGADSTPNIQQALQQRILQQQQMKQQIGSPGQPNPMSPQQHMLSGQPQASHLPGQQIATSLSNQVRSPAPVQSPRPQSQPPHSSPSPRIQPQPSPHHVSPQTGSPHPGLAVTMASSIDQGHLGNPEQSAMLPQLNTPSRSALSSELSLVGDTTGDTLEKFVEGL
T1 sequence (Q09472 whole entry): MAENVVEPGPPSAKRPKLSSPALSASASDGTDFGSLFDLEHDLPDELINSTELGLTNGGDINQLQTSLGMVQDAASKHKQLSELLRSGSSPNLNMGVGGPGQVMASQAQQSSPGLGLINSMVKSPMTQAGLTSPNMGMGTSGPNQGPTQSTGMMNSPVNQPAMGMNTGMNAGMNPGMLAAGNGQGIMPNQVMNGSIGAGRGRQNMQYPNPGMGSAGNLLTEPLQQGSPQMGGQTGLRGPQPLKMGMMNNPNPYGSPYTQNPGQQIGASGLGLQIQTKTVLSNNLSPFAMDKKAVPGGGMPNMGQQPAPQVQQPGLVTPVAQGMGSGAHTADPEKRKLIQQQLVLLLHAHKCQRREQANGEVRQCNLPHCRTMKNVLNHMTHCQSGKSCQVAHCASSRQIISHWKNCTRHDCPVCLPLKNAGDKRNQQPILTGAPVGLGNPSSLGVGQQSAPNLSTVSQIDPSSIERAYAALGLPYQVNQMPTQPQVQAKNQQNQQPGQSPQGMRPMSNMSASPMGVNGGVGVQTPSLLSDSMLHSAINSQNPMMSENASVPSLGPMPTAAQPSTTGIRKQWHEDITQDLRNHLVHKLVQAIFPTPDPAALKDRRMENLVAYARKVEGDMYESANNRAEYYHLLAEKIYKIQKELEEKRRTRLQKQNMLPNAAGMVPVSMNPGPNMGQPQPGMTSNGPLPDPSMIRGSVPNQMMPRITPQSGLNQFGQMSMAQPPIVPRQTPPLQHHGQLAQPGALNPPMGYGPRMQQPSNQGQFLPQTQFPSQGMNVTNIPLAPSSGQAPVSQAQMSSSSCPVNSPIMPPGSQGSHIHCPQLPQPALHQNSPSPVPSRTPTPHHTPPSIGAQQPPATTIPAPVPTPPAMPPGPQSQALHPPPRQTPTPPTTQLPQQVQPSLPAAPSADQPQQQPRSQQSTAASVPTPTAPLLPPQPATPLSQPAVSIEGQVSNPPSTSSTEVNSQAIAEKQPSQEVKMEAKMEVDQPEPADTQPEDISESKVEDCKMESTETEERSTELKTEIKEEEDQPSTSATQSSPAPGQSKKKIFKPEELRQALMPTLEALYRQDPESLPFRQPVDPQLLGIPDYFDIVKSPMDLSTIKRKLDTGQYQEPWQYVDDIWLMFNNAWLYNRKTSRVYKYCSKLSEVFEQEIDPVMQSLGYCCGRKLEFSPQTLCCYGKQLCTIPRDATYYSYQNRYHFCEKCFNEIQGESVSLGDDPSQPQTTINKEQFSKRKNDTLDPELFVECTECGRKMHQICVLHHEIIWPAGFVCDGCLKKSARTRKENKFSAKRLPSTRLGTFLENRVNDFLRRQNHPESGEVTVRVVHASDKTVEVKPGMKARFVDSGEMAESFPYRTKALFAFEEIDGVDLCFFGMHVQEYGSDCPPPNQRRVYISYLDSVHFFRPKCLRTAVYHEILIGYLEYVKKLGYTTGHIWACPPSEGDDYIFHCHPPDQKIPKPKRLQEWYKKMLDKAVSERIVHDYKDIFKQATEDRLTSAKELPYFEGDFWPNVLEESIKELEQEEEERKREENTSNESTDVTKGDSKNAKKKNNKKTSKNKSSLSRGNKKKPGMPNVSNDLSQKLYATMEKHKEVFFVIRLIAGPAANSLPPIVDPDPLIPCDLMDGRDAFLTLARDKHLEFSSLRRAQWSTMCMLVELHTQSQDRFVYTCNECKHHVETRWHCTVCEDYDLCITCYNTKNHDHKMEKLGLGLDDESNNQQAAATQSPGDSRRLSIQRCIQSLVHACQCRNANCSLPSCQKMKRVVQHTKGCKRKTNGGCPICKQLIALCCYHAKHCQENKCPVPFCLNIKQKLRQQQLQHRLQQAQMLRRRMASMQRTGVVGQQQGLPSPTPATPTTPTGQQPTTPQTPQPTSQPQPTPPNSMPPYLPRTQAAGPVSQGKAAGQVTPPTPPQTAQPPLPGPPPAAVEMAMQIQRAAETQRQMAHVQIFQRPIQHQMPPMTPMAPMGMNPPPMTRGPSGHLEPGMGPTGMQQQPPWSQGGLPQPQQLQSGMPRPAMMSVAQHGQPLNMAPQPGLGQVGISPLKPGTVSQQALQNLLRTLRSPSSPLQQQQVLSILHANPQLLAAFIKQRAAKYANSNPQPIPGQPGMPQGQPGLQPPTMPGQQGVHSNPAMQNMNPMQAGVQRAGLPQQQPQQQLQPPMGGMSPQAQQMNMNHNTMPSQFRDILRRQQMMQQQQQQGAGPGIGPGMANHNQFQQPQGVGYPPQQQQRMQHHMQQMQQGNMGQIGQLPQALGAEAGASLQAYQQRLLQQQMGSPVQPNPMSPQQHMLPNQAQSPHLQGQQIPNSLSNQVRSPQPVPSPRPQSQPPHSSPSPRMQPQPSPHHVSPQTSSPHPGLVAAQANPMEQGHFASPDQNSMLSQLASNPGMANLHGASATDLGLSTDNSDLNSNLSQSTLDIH

Row | Compound | Dmax (p300) | DC50 (p300) | DC50 (CBP) | Dmax (CBP)
1 | Cc1cc(-c2cc3cccc(-c4cc(C(C)C)c5c(c4)n(C)c(=O)n5C)c3cn2)cnc1C(=O)NCC#Cc1cccc(NC23CC(C2)C(=O)NC3=O)c1 [Example A177, N-(3-(3-((2,4-dioxo-3-azabicyclo[3.1.1]heptan-1-yl)amino)phenyl)prop-2-yn-1-yl)-5-(8-(7-isopropyl-1,3-dimethyl-2-oxo-2,3-dihydro-1H-benzo[d]imidazol-5-yl)isoquinolin-3-yl)-3-methylpicolinamide] | > 80% | 0.01 to 0.099 µM | > 1 µM | < 20%
2 | Cn1c(=O)n(C)c2cc(N3CCOc4nc(-c5ccc(C(=O)NCC#Cc6ccc7occ(C89CC(C8)C(=O)NC9=O)c7c6)nc5)ncc43)ccc21 [Example A178, 5-(5-(1,3-dimethyl-2-oxo-2,3-dihydro-1H-benzo[d]imidazol-5-yl)-6,7-dihydro-5H-pyrimido[4,5-b][1,4]oxazin-2-yl)-N-(3-(3-(2,4-dioxo-3-azabicyclo [3.1.1]heptan-1-yl)benzofuran-5-yl)prop-2-yn-1-yl)picolinamide] | 20 to 39% | 0.01 to 0.099 µM | > 1 µM | < 20%
3 | Cc1cc(-c2cc3cccc(-c4ccc5c(c4)n(C)c(=O)n5C)c3cn2)cnc1C(=O)NCC#Cc1cc2c(C3CCC(=O)NC3=O)cccc2o1 (centres unmarked) [Example A180, 5-(8-(1,3-dimethyl-2-oxo-2,3-dihydro-1H-benzo[d]imidazol-5-yl)isoquinolin-3-yl)-N-(3-(4-(2,6-dioxo-piperidin-3-yl)benzofuran-2-yl)prop-2-yn-1-yl)-3-methylpicolinamide] | > 80% | 0.001 to 0.0099 µM | > 1 µM | < 20%
4 | Cc1cc(-c2cc3cccc(-c4ccc5c(c4)n(C)c(=O)n5C)c3cn2)cnc1C(=O)NCC#Cc1cc2c([C@H]3CCC(=O)NC3=O)cccc2o1 [Example A181, (R)-5-(8-(1,3-dimethyl-2-oxo-2,3-dihydro-1H-benzo [d]imidazol-5-yl)isoquinolin-3-yl)-N-(3-(4-(2,6-dioxopiperidin-3-yl)benzofuran-2-yl)prop-2-yn-1-yl)-3-methylpicolinamide] | > 80% | 0.001 to 0.0099 µM | 0.1 to 0.999 µM | < 20%
5 | Cc1cc(-c2cc3cccc(-c4ccc5c(c4)n(C)c(=O)n5C)c3cn2)cnc1C(=O)NCC#Cc1cc2c([C@@H]3CCC(=O)NC3=O)cccc2o1 [Example A182, (S)-5-(8-(1,3-dimethyl-2-oxo-2,3-dihydro-1H-benzo[d]imidazol-5-yl)isoquinolin-3-yl)-N-(3-(4-(2,6-dioxopiperidin-3-yl)benzofuran-2-yl)prop-2-yn-1-yl)-3-methylpicolinamide] | > 80% | 0.001 to 0.0099 µM | > 1 µM | < 20%
6 | CC(C)c1cc(-c2cccc3cc(-c4ccc(C(=O)NCC#Cc5cc6c(F)ccc(C7CCC(=O)NC7=O)c6o5)nc4)ncc23)cc2c1n(C)c(=O)n2C (centres unmarked) [Example A185, N-(3-(7-(2,6-dioxo-piperidin-3-yl)-4-fluorobenzofuran-2-yl)prop-2-yn-1-yl)-5-(8-(7-isopropyl-1,3-dimethyl-2-oxo-2,3-dihydro-1H-benzo [d]imidazol-5-yl)isoquinolin-3-yl)picolinamide] | 60 to 79% | 0.01 to 0.099 µM | > 1 µM | < 20%
7 | Cc1cc(-c2cc3cccc(-c4cnc5c(c4)n(C)c(=O)n5C)c3cn2)cnc1C(=O)NCC#Cc1cc2c(C3CCC(=O)NC3=O)cccc2o1 (centres unmarked) [Example A189, 5-(8-(1,3-dimethyl-2-oxo-2,3-dihydro-1H-imidazo[4,5-b]pyridin-6-yl)isoquinolin-3-yl)-N-(3-(4-(2,6-dioxopiperidin-3-yl)benzofuran-2-yl)prop-2-yn-1-yl)-3-methylpicolinamide] | > 80% | 0.001 to 0.0099 µM | > 1 µM | < 20%
8 | CC(C)c1cc(-c2cccc3cc(-c4ccc(C(=O)NCC#Cc5oc6c(C7CCC(=O)NC7=O)cccc6c5F)nc4)ncc23)cc2c1n(C)c(=O)n2C (centres unmarked) [Example A191, N-(3-(7-(2,6-dioxo-piperidin-3-yl)-3-fluorobenzofuran-2-yl)prop-2-yn-1-yl)-5-(8-(7-isopropyl-1,3-dimethyl-2-oxo-2,3-dihydro-1H-benzo [d]imidazol-5-yl)isoquinolin-3-yl)picolinamide] | > 80% | 0.01 to 0.099 µM | > 1 µM | < 20%
9 | Cn1c(=O)n(C)c2c(N3CC4CCC(C3)O4)nc(-c3cccc4cc(-c5ccc(C(=O)NCC#Cc6ccc7occ(C89CC(C8)C(=O)NC9=O)c7c6)nc5)ncc34)cc21 [Example A194, 5-(8-(4-(8-oxa-3-azabicyclo[3.2.1]octan-3-yl)-1,3-dimethyl-2-oxo-2,3-dihydro-1H-imidazo[4,5-c]pyridin-6-yl)isoquinolin-3-yl)-N-(3-(3-(2,4-dioxo-3-azabicyclo[3.1.1]heptan-1-yl)benzofuran-5-yl)prop-2-yn-1-yl)picolinamide] | > 80% | 0.001 to 0.0099 µM | > 1 µM | < 20%
10 | Cc1cc(-c2ncc3c(n2)OCCN3c2ccc3c(c2)n(C)c(=O)n3C)cnc1C(=O)NCC#Cc1cc2c(C3CCC(=O)NC3=O)nccc2o1 (centres unmarked) [Example A195, 5-(5-(1,3-dimethyl-2-oxo-2,3-dihydro-1H-benzo[d]imidazol-5-yl)-6,7-dihydro-5H-pyrimido[4,5-b][1,4]oxazin-2-yl)-N-(3-(4-(2,6-dioxopiperidin-3-yl)furo[3,2-c]pyridin-2-yl)prop-2-yn-1-yl)-3-methylpicolinamide] | > 80% | 0.001 to 0.0099 µM | > 1 µM | < 20%
11 | CC(C)c1cc(-c2cccc3cc(-c4ccc(C(=O)NCC#Cc5cc6c(C7CCC(=O)NC7=O)cccc6o5)nc4)ncc23)cc2c1n(C)c(=O)n2C (centres unmarked) [Example A197, N-(3-(4-(2,6-dioxo-piperidin-3-yl)benzofuran-2-yl)prop-2-yn-1-yl)-5-(8-(7-isopropyl-1,3-dimethyl-2-oxo-2,3-dihydro-1H-benzo [d]imidazol-5-yl)isoquinolin-3-yl)picolinamide] | > 80% | 0.001 to 0.0099 µM | > 1 µM | < 20%
12 | Cc1cc(N2CCOc3nc(-c4ccc(C(=O)NCC#Cc5cc6c(C7CCC(=O)NC7=O)cccc6o5)nc4)ncc32)cc2c1n(C)c(=O)n2C (centres unmarked) [Example A199, N-(3-(4-(2,6-dioxo-piperidin-3-yl)benzofuran-2-yl)prop-2-yn-1-yl)-5-(5-(1,3,7-trimethyl-2-oxo-2,3-dihydro-1H-benzo[d]imidazol-5-yl)-6,7-dihydro-5H-pyrimido[4,5-b] [1,4]oxazin-2-yl)picolinamide] | > 80% | 0.001 to 0.0099 µM | 0.1 to 0.999 µM | < 20%
13 | CC(C)c1cc(-c2cccc3cc(-c4ccc(C(=O)NCC#Cc5cnc6c(c5)c(C5CCC(=O)NC5=O)cn6C)nc4)ncc23)cc2c1n(C)c(=O)n2C (centres unmarked) [Example A202, N-(3-(3-(2,6-dioxo-piperidin-3-yl)-1-methyl-1H-pyrrolo [2,3-b]pyridin-5-yl)prop-2-yn-1-yl)-5-(8-(7-isopropyl-1,3-dimethyl-2-oxo-2,3-dihydro-1H-benzo[d]imidazol-5-yl)isoquinolin-3-yl)picolinamide] | 60 to 79% | 0.01 to 0.099 µM | > 1 µM | < 20%
14 | Cc1cc(-c2ncc3c(n2)OCCN3c2ccc3c(c2)n(C)c(=O)n3C)cnc1C(=O)NCC#Cc1cc2c(C3CCC(=O)NC3=O)ccc(F)c2o1 (centres unmarked) [Example A203, 5-(5-(1,3-dimethyl-2-oxo-2,3-dihydro-1H-benzo[d]imidazol-5-yl)-6,7-dihydro-5H-pyrimido[4,5-b][1,4]oxazin-2-yl)-N-(3-(4-(2,6-dioxopiperidin-3-yl)-7-fluoro-benzofuran-2-yl)prop-2-yn-1-yl)-3-methylpicolinamide] | 60 to 79% | 0.01 to 0.099 µM | > 1 µM | < 20%
15 | CC(C)c1cc(-c2cccc3cc(-c4ccc(C(=O)NCC#Cc5ccc6[nH]nc(C7CCC(=O)NC7=O)c6c5)nc4)ncc23)cc2c1n(C)c(=O)n2C (centres unmarked) [Example A204, N-(3-(3-(2,6-dioxo-piperidin-3-yl)-1H-indazol-5-yl)prop-2-yn-1-yl)-5-(8-(7-isopropyl-1,3-dimethyl-2-oxo-2,3-dihydro-1H-benzo [d]imidazol-5-yl)isoquinolin-3-yl)picolinamide] | > 80% | 0.001 to 0.0099 µM | 0.001 to 0.0099 µM | 60 to 79%
16 | COc1nc(-c2cnc(C(=O)NCC#Cc3cc4c(C5CCC(=O)NC5=O)cccc4o3)c(C)c2)ncc1Nc1cc(C2CCOCC2)c2c(c1)n(C)c(=O)n2C (centres unmarked) [Example A207, 5-(5-((1,3-dimethyl-2-oxo-7-(tetrahydro-2H-pyran-4-yl)-2,3-dihydro-1H-benzo[d]imidazol-5-yl)amino)-4-methoxypyrimidin-2-yl)-N-(3-(4-(2,6-dioxopiperidin-3-yl)benzofuran-2-yl)prop-2-yn-1-yl)-3-methylpicolinamide] | > 80% | < 0.001 µM | 0.1 to 0.999 µM | < 20%
17 | CC(C)c1cc(-c2cccc3cc(-c4ccc(C(=O)NCC#Cc5cc6c(C7CCC(=O)NC7=O)nccc6s5)nc4)ncc23)cc2c1n(C)c(=O)n2C (centres unmarked) [Example A208, N-(3-(4-(2,6-dioxo-piperidin-3-yl)thieno[3,2-c]pyridin-2-yl)prop-2-yn-1-yl)-5-(8-(7-isopropyl-1,3-dimethyl-2-oxo-2,3-dihydro-1H-benzo[d]imidazol-5-yl)isoquinolin-3-yl)picolinamide] | > 80% | 0.001 to 0.0099 µM | 0.01 to 0.099 µM | 60 to 79%
